This is an account of results in patent US20260062437A1, “ANTIVIRAL COMPOUNDS” (priority 2022, published 2026).

Molecules are shown by their SMILES. Entries after “also recorded” stand apart in the source; their conditions may differ. Like-named read-outs stand apart in the source and are kept apart here.

The test system of one series is Vero cells. Put plainly: Cytotoxicity assay (Alamar blue) in Vero cells. The settings on record: for cytotoxicity / change in cell viability: after 2 or 5 days; for change in cell viability: over/after 5 days; for decrease in cell viability: after 5 days (HLB-0532246: at high concentrations). In kind it is cell-based. The method, then: (§1) HUH7 and Vero cell lines were maintained in a humidified 5% CO2 environment at 37° C. HUH7 cells were cultured in DMEM (4500 mg/L “high glucose”+L-glutamine+25 mM HEPES-sodium pyruvate) supplemented with fetal bovine serum (10% FBS), penicillin (100 IU/mL), streptomycin ([…]), and 1% nonessential amino acids (NEAA). Vero cells were cultured in EMEM media supplemented with FBS (10% FBS), penicillin (100 IU/mL), and streptomycin (100 μg/mL). Cytotoxicity assays were done similarly to a previous report (J. Med. Chem. 2021, 64, 15429-15439). HUH7 or Vero cells were seeded at 2,000 cells/well in their appropriate cell culture media (50 μL) in 96-well clear plates and incubated for 24 hours. A DMSO solution of each individual compound was serially diluted (solution concentrations of 0.1, 0.5 and 1.0 mM were made) in the appropriate cell line media, and each solution (50 μL) was dosed to the cells (well volume total of 100 μL; final DMSO concentration of 0.5%). DMSO-only and no-cell control wells were dosed with a DMSO-media solution (50 μL of 1% DMSO in media) rather than compound. The cells were then incubated for 2 or 5 days. Two hours before the designated time point, Alamar blue (10 μL) was added to each well. At the time point, fluorescence data were measured using a BioTek Synergy H1 microplate reader. Cell viability was calculated by subtracting background fluorescence (no-cell control) from the measured fluorescence of each well. Wells with compounds were normalized to the DMSO-only control (100% viability) and no-cell controls. Each individual experiment was performed in groups of three technical replicates. For the reported Vero studies, cytotoxicity experiments were repeated in biological triplicate. The final cell viability percentage was calculated by averaging % viability from each of the biological replicates, and the uncertainty was calculated by propagating the standard deviations from each biological replicate (taking the square root of the sum of the squares of individual standard deviations).

The next series deals with HUH7 cells. In words: Cytotoxicity assay (Alamar blue) in HUH7 cells. The class given is cell-based. The settings on record: for change in cell viability: over/after 5 days; for cytotoxicity / change in cell viability: after 2 or 5 days; for decrease in cell viability: after 5 days (HLB-0532246: at high concentrations). The method, then:
as §1

The subject of the next series is West Nile Virus. Put plainly: Antiviral plaque assay with West Nile Virus. In kind it is cell-based.
Series [1] has as its system ZIKV. Put plainly: Antiviral testing against ZIKV. In kind it is cell-based, Zika Virus.
For series [2], the system named is ZIKV. Conditions: cited from earlier work; for antiviral activity against ZIKV: previously tested.
For a further series, the system named is WNV. The settings on record: previously tested, cited from earlier work.
In series [3] the target is polymerase of dengue (DENV) (Dengue virus type 2, UniProt P29990). Conditions: cited from earlier work.
Chain of polymerase of dengue (DENV) (P29990 2492-3391): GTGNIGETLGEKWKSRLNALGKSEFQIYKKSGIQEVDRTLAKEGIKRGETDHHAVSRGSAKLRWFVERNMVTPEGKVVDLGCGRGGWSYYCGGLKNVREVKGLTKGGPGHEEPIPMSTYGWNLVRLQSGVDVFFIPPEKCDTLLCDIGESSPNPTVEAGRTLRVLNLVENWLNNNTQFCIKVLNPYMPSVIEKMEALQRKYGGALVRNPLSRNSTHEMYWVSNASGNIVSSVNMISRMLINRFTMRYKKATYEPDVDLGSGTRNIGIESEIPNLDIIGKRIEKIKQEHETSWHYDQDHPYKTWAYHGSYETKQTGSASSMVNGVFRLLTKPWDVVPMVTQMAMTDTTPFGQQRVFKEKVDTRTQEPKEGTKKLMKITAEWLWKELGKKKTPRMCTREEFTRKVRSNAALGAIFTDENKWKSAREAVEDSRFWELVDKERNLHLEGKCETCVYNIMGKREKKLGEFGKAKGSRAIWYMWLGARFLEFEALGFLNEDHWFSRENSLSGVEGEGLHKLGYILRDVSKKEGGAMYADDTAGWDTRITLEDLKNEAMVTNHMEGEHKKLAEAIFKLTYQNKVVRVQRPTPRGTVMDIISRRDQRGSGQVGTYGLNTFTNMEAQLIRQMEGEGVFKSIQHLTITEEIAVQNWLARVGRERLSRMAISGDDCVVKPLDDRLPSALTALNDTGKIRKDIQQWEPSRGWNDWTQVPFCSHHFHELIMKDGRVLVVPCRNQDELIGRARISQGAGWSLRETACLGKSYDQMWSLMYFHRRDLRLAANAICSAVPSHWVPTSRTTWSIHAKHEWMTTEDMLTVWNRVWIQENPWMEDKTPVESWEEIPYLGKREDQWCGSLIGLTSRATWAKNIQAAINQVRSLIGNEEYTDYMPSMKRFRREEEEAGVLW
A further series has as its target polymerase of WNV (West Nile virus, UniProt P06935). Conditions: cited from earlier work.
The target in another series is polymerase of ZIKV (Zika virus, UniProt Q32ZE1). Conditions: cited from earlier work.
Chain of polymerase of ZIKV (Q32ZE1 2517-3419): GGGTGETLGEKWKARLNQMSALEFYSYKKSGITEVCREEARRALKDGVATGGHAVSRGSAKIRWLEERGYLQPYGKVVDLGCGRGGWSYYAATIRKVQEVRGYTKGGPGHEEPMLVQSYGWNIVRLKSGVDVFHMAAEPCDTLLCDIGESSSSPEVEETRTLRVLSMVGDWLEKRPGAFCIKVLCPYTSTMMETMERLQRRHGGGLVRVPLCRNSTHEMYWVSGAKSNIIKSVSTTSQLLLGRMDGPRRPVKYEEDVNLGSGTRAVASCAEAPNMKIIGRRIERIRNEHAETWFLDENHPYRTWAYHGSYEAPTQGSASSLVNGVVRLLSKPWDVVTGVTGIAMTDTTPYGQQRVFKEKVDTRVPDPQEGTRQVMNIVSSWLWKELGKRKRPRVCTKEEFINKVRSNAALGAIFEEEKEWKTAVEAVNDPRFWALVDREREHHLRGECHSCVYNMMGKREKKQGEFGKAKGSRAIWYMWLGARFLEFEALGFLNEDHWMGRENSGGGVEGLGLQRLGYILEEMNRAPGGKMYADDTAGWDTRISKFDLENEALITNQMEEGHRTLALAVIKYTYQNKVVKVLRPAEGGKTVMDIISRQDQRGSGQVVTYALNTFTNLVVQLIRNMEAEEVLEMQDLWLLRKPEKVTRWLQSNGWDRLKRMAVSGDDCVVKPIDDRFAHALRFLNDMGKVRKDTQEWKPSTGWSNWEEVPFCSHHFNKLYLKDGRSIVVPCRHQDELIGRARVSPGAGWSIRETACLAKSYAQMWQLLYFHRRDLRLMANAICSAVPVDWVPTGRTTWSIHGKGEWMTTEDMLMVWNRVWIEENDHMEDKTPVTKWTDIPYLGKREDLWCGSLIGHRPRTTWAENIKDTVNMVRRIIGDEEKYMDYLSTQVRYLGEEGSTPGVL
The target of series [4] is polymerase of hepatitis C (HCV) (Hepatitis C virus genotype 1a, UniProt P27958). The settings on record: cited from earlier work.
Chain of polymerase of hepatitis C (HCV) (P27958 2421-3011 limits assumed): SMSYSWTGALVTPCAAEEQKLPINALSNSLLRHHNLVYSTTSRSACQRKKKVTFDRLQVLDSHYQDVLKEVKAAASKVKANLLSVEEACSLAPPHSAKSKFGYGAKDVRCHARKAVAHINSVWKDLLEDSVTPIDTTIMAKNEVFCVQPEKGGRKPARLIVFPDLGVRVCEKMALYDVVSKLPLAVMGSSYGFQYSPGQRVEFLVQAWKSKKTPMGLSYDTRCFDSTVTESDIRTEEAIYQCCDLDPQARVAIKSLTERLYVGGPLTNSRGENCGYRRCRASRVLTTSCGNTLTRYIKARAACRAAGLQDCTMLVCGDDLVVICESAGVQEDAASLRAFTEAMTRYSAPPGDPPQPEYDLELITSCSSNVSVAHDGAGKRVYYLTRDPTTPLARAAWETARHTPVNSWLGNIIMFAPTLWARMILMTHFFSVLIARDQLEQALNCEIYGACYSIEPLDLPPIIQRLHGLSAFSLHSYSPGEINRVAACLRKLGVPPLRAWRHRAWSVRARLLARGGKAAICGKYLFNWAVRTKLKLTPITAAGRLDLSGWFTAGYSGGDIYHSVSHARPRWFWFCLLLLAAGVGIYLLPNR
Another series concerns the target polymerase of polio (PV) (Poliovirus type 1, UniProt P03300). Conditions: cited from earlier work.
A further series has as its target polymerase of SARS-CoV-2 (Severe acute respiratory syndrome coronavirus 2, UniProt P0DTD1). The settings on record: cited from earlier work.

Chain of polymerase of polio (PV) (P03300 1749-2209 limits assumed): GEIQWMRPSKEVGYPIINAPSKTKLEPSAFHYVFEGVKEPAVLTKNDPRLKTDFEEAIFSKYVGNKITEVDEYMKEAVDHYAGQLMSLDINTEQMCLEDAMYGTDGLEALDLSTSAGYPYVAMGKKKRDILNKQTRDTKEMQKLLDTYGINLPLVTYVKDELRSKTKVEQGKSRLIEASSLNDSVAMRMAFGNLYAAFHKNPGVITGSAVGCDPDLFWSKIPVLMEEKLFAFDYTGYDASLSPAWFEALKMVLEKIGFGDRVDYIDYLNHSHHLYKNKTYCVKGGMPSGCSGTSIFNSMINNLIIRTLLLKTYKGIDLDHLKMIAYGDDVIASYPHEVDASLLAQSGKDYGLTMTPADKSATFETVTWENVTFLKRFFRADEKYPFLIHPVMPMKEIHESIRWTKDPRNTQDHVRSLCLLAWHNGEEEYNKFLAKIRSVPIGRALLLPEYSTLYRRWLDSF
Chain of polymerase of WNV (P06935 2526-3430): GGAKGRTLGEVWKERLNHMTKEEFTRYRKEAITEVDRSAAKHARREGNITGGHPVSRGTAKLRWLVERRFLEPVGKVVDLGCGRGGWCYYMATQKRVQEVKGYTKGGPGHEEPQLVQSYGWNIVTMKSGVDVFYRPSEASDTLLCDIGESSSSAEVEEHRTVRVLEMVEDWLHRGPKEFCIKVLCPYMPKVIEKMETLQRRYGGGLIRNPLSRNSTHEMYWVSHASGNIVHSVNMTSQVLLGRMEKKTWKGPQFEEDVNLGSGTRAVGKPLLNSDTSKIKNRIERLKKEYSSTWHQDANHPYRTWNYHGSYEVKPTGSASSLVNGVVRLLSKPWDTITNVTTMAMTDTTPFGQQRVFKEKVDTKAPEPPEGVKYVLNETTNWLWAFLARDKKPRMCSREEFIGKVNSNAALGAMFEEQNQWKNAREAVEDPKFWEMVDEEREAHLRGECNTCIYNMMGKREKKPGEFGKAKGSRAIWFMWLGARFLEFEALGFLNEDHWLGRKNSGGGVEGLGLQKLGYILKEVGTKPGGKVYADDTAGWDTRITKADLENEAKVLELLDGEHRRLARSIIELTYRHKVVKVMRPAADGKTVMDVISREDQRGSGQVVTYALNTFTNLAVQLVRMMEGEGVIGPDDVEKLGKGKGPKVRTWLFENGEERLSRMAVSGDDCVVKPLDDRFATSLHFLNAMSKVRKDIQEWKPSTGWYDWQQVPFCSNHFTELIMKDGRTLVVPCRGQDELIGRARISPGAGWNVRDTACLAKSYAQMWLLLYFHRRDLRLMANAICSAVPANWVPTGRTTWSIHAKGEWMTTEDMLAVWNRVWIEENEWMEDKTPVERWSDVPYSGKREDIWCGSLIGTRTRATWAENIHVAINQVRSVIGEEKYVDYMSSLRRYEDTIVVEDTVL

`Cc1cn([C@@H]2OC(CO)=C[C@@H]2O)c(=O)[nH]c1=O` [HLB-0535066]: the “cytotoxicity / change in cell viability” value in the series on Vero cells is on record as “did not show any cytotoxicity”. In addition, the “change in cell viability” value in the series on HUH7 cells is given as “remained unchanged”. Moreover, the “antiviral activity against West Nile Virus” value in the series on West Nile Virus is on record as “no activity”. Moreover, the “antiviral activity against ZIKV” value with ZIKV [1] is “no activity”.
Regarding `O=c1ccn([C@@H]2OC(CO)=C[C@@H]2O)c(=O)[nH]1` [HLB-0535069], the “change in cell viability” value with Vero cells and with HUH7 cells was “did not show a significant decrease in cell viability” each time. In the series with West Nile Virus, the “antiviral activity against West Nile Virus” value is recorded as “no activity”. In addition, the “antiviral activity against ZIKV” value in the series on ZIKV [1] is recorded as “did not display antiviral activity”.
`CC(C)OC(=O)[C@H](C)N[P@](=O)(OCC1=C[C@H](O)[C@H](n2ccc(N)nc2=O)O1)Oc1ccccc1` [HLB-0532247]: the “cytotoxicity / change in cell viability” value in the series with Vero cells and with HUH7 cells was “did not show any cytotoxicity” in each case. The “antiviral activity against ZIKV” value in the series with ZIKV [2] (HUH7 cells) and in the series with ZIKV [2] (Vero cells) was “potent antiviral activity” each time. Besides, the “antiviral activity against WNV” value in the series with WNV (HUH7 cells) was “potent antiviral activity”.
Take `Nc1ccn([C@@H]2OC(CO)=C[C@@H]2O)c(=O)n1` [HLB-0532246, reference compound]: the “decrease in cell viability” value in the series on Vero cells and in the series with HUH7 cells was 10% each time. In addition, the “antiviral activity against ZIKV” value in the series with ZIKV [2] (Vero cells) is recorded as “demonstrated antiviral activity”. In addition, in the series with WNV (cell line not stated), the “antiviral activity against WNV” value is “inactive”.
Consider `Nc1ccn([C@@H]2OC(CO)=C[C@H]2O)c(=O)n1` [3′-deoxy-3′,4′-didehydro-cytidine], for which, in the series on ZIKV [2] (cellular studies (Gizzi et al., Nature 2018)), the “ZIKV inhibitory activity” value was “only weak ZIKV inhibitory activity”.
On to `Nc1nc2c(ncn2[C@@H]2OC(CO)=C[C@@H]2O)c(=O)[nH]1` [HLB-0535072], for which, in the series with Vero cells, the “cytotoxicity / change in cell viability” value is “No significant change in cell viability”. Further, the “change in cell viability” value in the series on HUH7 cells was “slight decrease in cell viability”. For the same compound, the “antiviral activity against West Nile Virus” value in the series with West Nile Virus is on record as “no activity”. The “antiviral activity against ZIKV” value in the series with ZIKV [1] is on record as “Antiviral activity was observed”.
For the compound `Cc1cn([C@@H]2OC(CO[P@@](=O)(N[C@@H](C)C(=O)OC(C)C)Oc3ccccc3)=C[C@@H]2O)c(=O)[nH]c1=O` [HLB-0535065], the “cytotoxicity / change in cell viability” value in the series with Vero cells is “did not show any cytotoxicity”. The cell viability with HUH7 cells (by day 5) worked out at 50%. Also, the “antiviral activity against West Nile Virus” value with West Nile Virus was “no activity”. Also, in the series with ZIKV [1], the “antiviral activity against ZIKV” value is recorded as “no activity”.
On to `CC(C)OC(=O)[C@H](C)N[P@](=O)(OCC1=C[C@H](O)[C@H](n2ccc(=O)[nH]c2=O)O1)Oc1ccccc1` [HLB-0532254], for which the “decrease in cell viability” value in the series on Vero cells stood at 10%; in the series on HUH7 cells, 25%. For the same compound, the “antiviral activity against West Nile Virus” value with West Nile Virus was “no activity; also recorded: not active”. Moreover, the “antiviral activity against ZIKV” value is listed as “did not display antiviral activity” with ZIKV [1] (at 1.0 mM) and “potent activity” in the series on ZIKV [1] (dosed at 0.1 mM).
As for `CC(C)OC(=O)[C@H](C)N[P@](=O)(OCC1=C[C@H](O)[C@H](n2cnc3c(=O)[nH]cnc32)O1)Oc1ccccc1` [HLB-0535083], the “change in cell viability” value with Vero cells and with HUH7 cells was “No change in cell viability” throughout. Further, the “antiviral activity against West Nile Virus” value with West Nile Virus was “no activity”. In the series on ZIKV [1], the “antiviral activity against ZIKV” value is “no activity”.
With `CC(C)OC(=O)[C@H](C)N[P@](=O)(OCC1=C[C@H](O)[C@H](n2cnc3c(=O)[nH]c(N)nc32)O1)Oc1ccccc1` [HLB-0535073], the “cytotoxicity / change in cell viability” value with Vero cells and in the series on HUH7 cells was “No significant change in cell viability” in each case. For the same compound, in the series with West Nile Virus, the “antiviral activity against West Nile Virus” value is “no activity”. Further, the “antiviral activity against ZIKV” value with ZIKV [1] was “Antiviral activity was observed”.
With `Nc1ccn([C@@H]2OC(COP(=O)(O)OP(=O)(O)OP(=O)(O)O)=C[C@H]2O)c(=O)n1` [ddhCTP, 3′-Deoxy-3′,4′-didehydro-cytidine-5′-triphosphate], in series [3], the “inhibition of DENV polymerase” value is recorded as “inhibits”. Besides, the “inhibition of WNV polymerase” value at polymerase of WNV is reported as “inhibits”. For the same compound, the “inhibition of ZIKV polymerase” value on polymerase of ZIKV is given as “inhibits”. The “inhibition of HCV polymerase” value in series [4] is recorded as “inhibits”. Further, the “inhibition of PV polymerase” value at polymerase of polio (PV) was “weak inhibition”. Also, on polymerase of SARS-CoV-2, the “inhibition of SARS-CoV-2 polymerase” value is on record as “inhibits”.
